Assay results taken from publication PMC6059433, “Discovery of fragments that target key interactions in the signal recognition particle (SRP) as potential leads for a new class of antibiotics” (PLoS ONE, 2018).

Molecular target: T1, FtsY (FtsYNG) (Escherichia coli, UniProt P10121)
T1 construct: NG domain, 196–497 aa
Assay: SPR (positive control, […] MgCl2 in running buffer); […]-TROSY-HSQC titration
Format: binding

T1 sequence (P10121 196-497): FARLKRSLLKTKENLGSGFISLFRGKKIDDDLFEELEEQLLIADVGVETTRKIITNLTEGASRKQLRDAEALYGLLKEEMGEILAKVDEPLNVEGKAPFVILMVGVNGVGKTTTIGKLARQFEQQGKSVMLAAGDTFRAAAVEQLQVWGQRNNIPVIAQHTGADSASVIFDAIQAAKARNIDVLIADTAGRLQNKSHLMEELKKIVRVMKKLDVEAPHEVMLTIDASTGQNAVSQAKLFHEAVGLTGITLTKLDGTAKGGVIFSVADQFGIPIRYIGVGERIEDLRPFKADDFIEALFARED

Nc1nc2c(ncn2[C@@H]2O[C@H](COP(=O)(O)OP(=O)(O)NP(=O)(O)O)[C@@H](O)[C@H]2O)c(=O)[nH]1 [GMPPNP]
Kd: 280 ± 80 µM
